# Where two headings read alike, the source gives them in different places.
# Assays:
# Assay type in all cases: cell-based
# [1] = molecular target: T1, hGIPR (Homo sapiens, UniProt P48546); assay: Functional cAMP formation (HTRF) in HEK-293 clonal cells expressing hGIPR, 0.1% bovine casein, without or with 1.0% human serum albumin; settings: for Emax: percent of maximal response to GIP(1-42)NH2; for EC50: cAMP, 0.1% bovine casein (no human serum albumin), geometric mean
# T1 construct: expressed in transfected cells
# T1 sequence (P48546 22-466): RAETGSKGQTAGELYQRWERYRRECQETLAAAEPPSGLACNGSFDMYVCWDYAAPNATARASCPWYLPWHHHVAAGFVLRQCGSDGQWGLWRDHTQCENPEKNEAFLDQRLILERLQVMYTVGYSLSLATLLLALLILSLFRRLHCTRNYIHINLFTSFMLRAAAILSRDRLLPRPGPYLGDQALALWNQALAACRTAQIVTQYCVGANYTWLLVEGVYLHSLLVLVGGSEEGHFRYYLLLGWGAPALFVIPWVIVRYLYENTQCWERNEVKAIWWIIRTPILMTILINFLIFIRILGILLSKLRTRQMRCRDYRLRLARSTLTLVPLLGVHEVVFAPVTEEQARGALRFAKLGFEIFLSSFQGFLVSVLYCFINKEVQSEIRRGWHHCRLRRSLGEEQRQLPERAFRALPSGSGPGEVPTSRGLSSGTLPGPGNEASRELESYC
# Method in brief: (§1)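 Readings of the HTRF 665/620 nm ratio, which falls as cAMP rises, were converted to nM cAMP using a standard curve after 30 min peptide exposure at 37° C.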
# [2] = molecular target: T2, hGCGR (Homo sapiens, UniProt P47871); assay: Functional cAMP formation (HTRF) in HEK-293 clonal cells expressing hGCGR, 0.1% bovine casein, without or with 1.0% human serum albumin; settings: 37° C., geometric mean
# T2 construct: expressed in transfected cells
# T2 sequence (P47871 26-477): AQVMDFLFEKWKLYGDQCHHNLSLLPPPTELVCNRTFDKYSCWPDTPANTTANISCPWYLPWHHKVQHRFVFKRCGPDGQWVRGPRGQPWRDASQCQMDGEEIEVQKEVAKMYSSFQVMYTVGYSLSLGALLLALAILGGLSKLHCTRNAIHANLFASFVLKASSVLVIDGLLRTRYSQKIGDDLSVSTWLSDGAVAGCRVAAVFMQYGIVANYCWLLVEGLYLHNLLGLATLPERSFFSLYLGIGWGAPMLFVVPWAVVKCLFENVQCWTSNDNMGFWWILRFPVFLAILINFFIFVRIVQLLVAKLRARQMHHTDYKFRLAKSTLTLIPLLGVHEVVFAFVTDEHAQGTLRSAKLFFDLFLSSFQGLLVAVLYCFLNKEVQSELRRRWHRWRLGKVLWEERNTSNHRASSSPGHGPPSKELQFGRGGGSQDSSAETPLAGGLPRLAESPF
# Method in brief: as §1
# [3] = molecular target: hGLP-1R (Homo sapiens, UniProt P43220); assay: Functional cAMP formation (HTRF) in HEK-293 clonal cells expressing hGLP-1R, 0.1% bovine casein, without or with 1.0% human serum albumin; set-up: expressed in transfected cells
# Sequence of hGLP-1R (P43220 24-463): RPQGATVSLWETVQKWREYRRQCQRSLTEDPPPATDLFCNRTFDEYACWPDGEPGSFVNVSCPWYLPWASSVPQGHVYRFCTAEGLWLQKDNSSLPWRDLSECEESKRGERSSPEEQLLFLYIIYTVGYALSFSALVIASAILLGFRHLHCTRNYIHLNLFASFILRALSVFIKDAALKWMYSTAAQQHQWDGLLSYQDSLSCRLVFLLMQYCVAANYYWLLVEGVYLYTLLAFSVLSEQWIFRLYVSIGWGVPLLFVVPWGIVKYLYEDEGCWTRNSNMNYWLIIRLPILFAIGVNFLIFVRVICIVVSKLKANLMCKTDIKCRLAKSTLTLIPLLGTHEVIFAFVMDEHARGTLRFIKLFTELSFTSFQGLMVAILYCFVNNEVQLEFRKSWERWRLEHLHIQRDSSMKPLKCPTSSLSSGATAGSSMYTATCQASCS
# Method in brief: as §1
Structure (SMILES),"Emax ([1]; HEK293, 0.1% bovine casein and 1.0% human serum albumin, 37° C., read-out: hGIPR Emax, % ± SEM)","Emax ([1]; HEK293, cAMP, 37° C., 0.1% bovine casein, arithmetic mean, read-out: hGIPR Emax, % ± SEM)","EC50 ([1]; 37° C., read-out: hGIPR EC50, nM (SEM, n))","EC50 ([2]; 0.1% bovine casein and 1.0% human serum albumin, read-out: hGCGR EC50, nM (SEM, n))","EC50 ([2]; cAMP, 0.1% bovine casein (no human serum albumin), read-out: hGCGR EC50, nM (SEM, n))","EC50 ([3]; cAMP, 37° C., 0.1% bovine casein (no human serum albumin), geometric mean, read-out: hGLP-1R EC50, nM (SEM, n))","Emax ([1]; HEK293, read-out: hGIPR Emax, % ± SEM, 0.1% bovine casein and 1.0% human serum albumin, 37° C.)","EC50 ([1]; hGIPR EC50, nM (SEM, n), 37° C.)","EC50 ([2]; hGCGR EC50, nM (SEM, n), 0.1% bovine casein and 1.0% human serum albumin)","EC50 ([2]; hGCGR EC50, nM (SEM, n), cAMP, 0.1% bovine casein (no human serum albumin))","Emax ([3]; HEK293, read-out: hGLP-1R Emax, % ± SEM, 0.1% bovine casein and 1.0% human serum albumin, 37° C., percent of maximal response to GLP-1(7-36)NH2)"
CC[C@H](C)[C@H](NC(=O)[C@H](CC(C)C)NC(=O)[C@](C)(Cc1ccc(O)cc1)NC(=O)[C@@H](CCC(=O)O)NC(=O)[C@@H](NC(=O)[C@H](Cc1ccccc1)NC(=O)[C@H](CCCCNC(=O)COCCOCCNC(=O)COCCOCCNC(=O)CCCCCCCCCCCCC(=O)O)NC(=O)C(C)(C)NC(=O)[C@H](CCC(N)=O)NC(=O)[C@H](C)NC(=O)[C@H](CCCCNC(=O)COCCOCCNC(=O)COCCOCCNC(=O)CCCCCCCCCCCCC(=O)O)NC(=O)[C@H](CCCN)NC(=O)[C@H](CC(=O)O)NC(=O)[C@H](CC(C)C)NC(=O)[C@](C)(CC(C)C)NC(=O)[C@@H](NC(=O)[C@H](CO)NC(=O)[C@H](CCc1ccc(O)cc1)NC(=O)[C@H](CC(=O)O)NC(=O)[C@H](CO)NC(=O)[C@@H](NC(=O)[C@](C)(Cc1ccccc1F)NC(=O)[C@@H](NC(=O)CNC(=O)[C@H](CCC(=O)O)NC(=O)C(C)(C)NC(=O)[C@@H](N)Cc1ccc(O)cc1)[C@@H](C)O)[C@@H](C)O)[C@@H](C)CC)[C@@H](C)CC)C(=O)N[C@@H](CCC(=O)O)C(=O)NCC(=O)NCC(=O)N1CCC[C@H]1C(=O)N[C@@H](CO)C(=O)N[C@@H](CO)C(=O)NCC(=O)N[C@@H](C)C(=O)N1CCC[C@H]1C(=O)N1CCC[C@H]1C(=O)N1CCC[C@H]1C(=O)N[C@@H](CO)C(N)=O [Example 272],81.2%,86%,0.0264 nM,> 9950 nM,> 9950 nM,0.388 nM,–,–,–,–,–
CC[C@H](C)[C@H](NC(=O)[C@H](CC(C)C)NC(=O)[C@](C)(Cc1ccc(O)cc1)NC(=O)[C@@H](CCC(=O)O)NC(=O)[C@@H](NC(=O)[C@H](Cc1ccccc1)NC(=O)[C@H](CCC(=O)O)NC(=O)C(C)(C)NC(=O)[C@H](CCC(N)=O)NC(=O)[C@H](C)NC(=O)[C@H](CCCCNC(=O)COCCOCCNC(=O)COCCOCCNC(=O)CC[C@H](NC(=O)CCCCCCCCCOc1ccc(C(=O)O)cc1)C(=O)O)NC(=O)[C@H](CCCN)NC(=O)[C@H](CC(=O)O)NC(=O)[C@H](CC(C)C)NC(=O)[C@](C)(CC(C)C)NC(=O)[C@@H](NC(=O)[C@H](CO)NC(=O)[C@H](Cc1ccncc1)NC(=O)[C@H](CC(=O)O)NC(=O)[C@H](CO)NC(=O)[C@@H](NC(=O)[C@](C)(Cc1ccccc1F)NC(=O)[C@@H](NC(=O)CNC(=O)[C@H](CCC(=O)O)NC(=O)C(C)(C)NC(=O)[C@@H](N)Cc1ccc(O)cc1)[C@@H](C)O)[C@@H](C)O)[C@@H](C)CC)[C@@H](C)CC)C(=O)N[C@@H](CCC(=O)O)C(=O)NCC(=O)NCC(=O)N1CCC[C@H]1C(=O)N[C@@H](CO)C(=O)N[C@@H](CO)C(=O)NCC(=O)N[C@@H](C)C(=O)N1CCC[C@H]1C(=O)N1CCC[C@H]1C(=O)N1CCC[C@H]1C(=O)N[C@@H](CO)C(=O)N[C@@H](CCCCNC(=O)COCCOCCNC(=O)COCCOCCNC(=O)CC[C@H](NC(=O)CCCCCCCCCOc1ccc(C(=O)O)cc1)C(=O)O)C(N)=O [Example 273],–,–,–,–,–,–,88.4%,0.0166 nM,> 9950 nM,> 9950 nM,90.5%
